Reference: patent US9611257B2, “PRMT5 inhibitors and uses thereof” (Epizyme, Inc., priority 2012, dated 2017)

Biological target: T1, PRMT5/MEP50 (Homo sapiens, UniProt O14744)
T1 construct: Expressed full-length human Flag-PRMT5/6His-MeP50 protein complex was purified; made in house; host or cells: Spodoptera frugiperda (SF9) insect cells, baculovirus (pDEST8)
Assay: PRMT5 Biochemical Assay (PRMT5/MEP50 enzyme assay on peptide substrate, 3H-SAM Flashplate)
Conditions: PRMT5/MEP50 4 nM, 3H-SAM 75 nM, peptide 40 nM, 30 min preincubation at 25 degrees Celsius
Protocol: • Mobile phase A: 4 L H2O\1.5 ml TFA; Mobile phase B: 4 L ACN\0.75 ml TFA • Column: HPLC-D: Innovation C18 UPLC Column 2.1×30 mm, 2.6 um • HPLC-E: Xtimate C18 2.1*30 mm*3 um • HPLC-H: Innovation C18 UPLC Column 2.1×30 mm, 2.6 um • Column temperature: 50° C.; Wavelength: 220 nm & 254 nm & 215 nm General HPLC Conditions (Basic) • Mobile phase A: 4 L H2O\2 ml NH4OH; Mobile phase B: Acetonitrile • Column: HPLC-B: XBridge C18 2.1*50 mm, 5 um • HPLC-C: Xbridge shield RP18 2.1*50 mm, 5 u • Column temperature: 30° C.; Wavelength: 220 nm & 254 nm & 215 nm General HPLC Conditions (Neutral) • Mobile phase A: H2O; Mobile phase B: Acetonitrile • Column: HPLC-B: XBridge C18 2.1*50 mm, 5 um • HPLC-C: Xbridge shield RP18 2.1*50 mm, 5 um • Column temperature: 30° C.; Wavelength: 220 nm & 254 nm & 215 nm Method A (0-30AB_6MIN) Flow Rate: 0.8 ml/min Gradient: 0% B to 30% B in 4.2 min, holding 30% B for 1 min, 30% B to 0% B in 0.01 min, holding 0% B for 1.09 min and then end. Method B (0-60AB_6MIN) • Flow Rate: 0.8 ml/min • Gradient: 0% B to 60% B in 4.2 min, holding 60% B for 1 min, 60% B to 0% B in 0.01 min, holding 0% B for 1.09 min and then end. Method C (10-80AB_6MIN) • Flow Rate: 0.8 ml/min • Gradient: 10% B to 80% B in 4.2 min, holding 80% B for 1 min, 80% B to 10% B in 0.01 min, holding 10% B for 1.09 min and then end. […]

T1 sequence (O14744 with tags, fused parts or gaps): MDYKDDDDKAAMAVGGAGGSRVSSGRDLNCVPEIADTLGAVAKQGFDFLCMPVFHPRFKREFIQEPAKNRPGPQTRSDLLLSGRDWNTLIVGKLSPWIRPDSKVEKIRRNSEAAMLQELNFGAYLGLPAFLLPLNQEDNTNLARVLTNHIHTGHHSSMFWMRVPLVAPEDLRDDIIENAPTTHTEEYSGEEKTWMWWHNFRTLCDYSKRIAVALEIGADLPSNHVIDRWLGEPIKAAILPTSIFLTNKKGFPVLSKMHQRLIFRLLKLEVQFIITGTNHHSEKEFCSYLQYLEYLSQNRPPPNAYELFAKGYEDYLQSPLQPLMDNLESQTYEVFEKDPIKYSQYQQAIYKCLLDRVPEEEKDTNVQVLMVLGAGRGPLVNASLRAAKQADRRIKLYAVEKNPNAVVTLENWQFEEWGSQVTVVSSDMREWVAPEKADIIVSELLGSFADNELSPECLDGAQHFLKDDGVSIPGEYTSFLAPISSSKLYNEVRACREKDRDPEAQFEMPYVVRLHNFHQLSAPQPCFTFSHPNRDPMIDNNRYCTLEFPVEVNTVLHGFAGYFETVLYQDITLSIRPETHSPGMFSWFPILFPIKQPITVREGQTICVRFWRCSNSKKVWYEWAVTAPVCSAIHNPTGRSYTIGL
T1 sequence (Q9BQA1 with tags, fused parts or gaps partner limits assumed): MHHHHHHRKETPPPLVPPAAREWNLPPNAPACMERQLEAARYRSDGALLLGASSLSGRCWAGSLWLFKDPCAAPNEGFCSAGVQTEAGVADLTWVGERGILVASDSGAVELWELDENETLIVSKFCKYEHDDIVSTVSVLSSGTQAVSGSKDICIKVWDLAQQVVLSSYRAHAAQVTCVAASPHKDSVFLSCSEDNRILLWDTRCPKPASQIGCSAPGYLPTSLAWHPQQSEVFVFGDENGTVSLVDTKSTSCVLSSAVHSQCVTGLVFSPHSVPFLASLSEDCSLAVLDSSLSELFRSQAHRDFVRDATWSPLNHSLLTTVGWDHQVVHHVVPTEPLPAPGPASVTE

| IC50 [µM] | SMILES |
| --- | --- |
| 0.101 to 1 | O=C(NC1CCOCC1)c1ccn(CC(O)CN2CCc3ccccc3C2)c(=O)c1 (centres unmarked) [Compound 33] |
| 1 to 10 | O=C(NC1CCOCC1)c1cc(=O)n(CC(O)CN2CCc3ccccc3C2)cn1 (centres unmarked) [Compound 34] |
